# Values of other authors, collected in publication PMC5852172, “Characterization of antimicrobial and hemolytic properties of short synthetic cationic lipopeptides based on QSAR/QSTR approach” (Amino Acids, 2017).
# Key:
# [1] = system: Enterococcus faecalis (ATCC 29212); conditions: minimum inhibitory concentration, CLSI procedure, E. faecalis ATCC 29212; ref [1] Greber et al. 2017
# Excerpt: Supplement 726_2017_2530_MOESM1_ESM.docx, table 1: Table 1S. Antimicrobial activity toward Gram-positive strains and toxicity toward human red blood cells. | column: Enterococcus fecalis
# [2] = system: S. epidermidis (PCM 2118); conditions: minimum inhibitory concentration, CLSI procedure, ref [1] Greber et al. 2017
# Excerpt: Supplement 726_2017_2530_MOESM1_ESM.docx, table 1: Table 1S. Antimicrobial activity toward Gram-positive strains and toxicity toward human red blood cells. | column: Staphylococcus epidermidis
# human red blood cells = conditions: lowest concentration of lipopeptide inducing 10% hemolysis of human red blood cells; ref [1] Greber et al. 2017
# Excerpt: Supplement 726_2017_2530_MOESM1_ESM.docx, table 1: Table 1S. Antimicrobial activity toward Gram-positive strains and toxicity toward human red blood cells. | column: Haemolysis
# [3] = system: Staphylococcus aureus (ATCC 25923); conditions: minimum inhibitory concentration, CLSI procedure, S. aureus ATCC 25923; ref [1] Greber et al. 2017
# Excerpt: Supplement 726_2017_2530_MOESM1_ESM.docx, table 1: Table 1S. Antimicrobial activity toward Gram-positive strains and toxicity toward human red blood cells. | column: Staphylococcus aureus
# [4] = system: Bacillus subtilis (ATCC 6633); conditions: minimum inhibitory concentration, CLSI procedure, B. subtilis ATCC 6633; ref [1] Greber et al. 2017
# Excerpt: Supplement 726_2017_2530_MOESM1_ESM.docx, table 1: Table 1S. Antimicrobial activity toward Gram-positive strains and toxicity toward human red blood cells. | column: Bacillus subtillis
Substance,Enterococcus fecalis MIC [1] [µg/mL],Staphylococcus epidermidis MIC [2] [µg/mL],Haemolysis MHC (human red blood cells) [µg/mL],Staphylococcus aureus MIC [3] [µg/mL],Bacillus subtillis MIC [4] [µg/mL]
C16-KKKK-NH2,16,4,16,4,4
C16-KKK-NH2,16,4,32,8,8
C16-KK-NH2,8,4,256,8,4
